According to US20160151458A1, “Use Of Unacylated Ghrelin, Fragments And Analogs Thereof As Antioxidant” (ALIZE PHARMA SAS, priority 2013, published 2016):
Ends that are not written are not given here. * marks the point of attachment. Octanoyl = CCCCCCCC(=O)*

Columns and labels:
[1] = test system: primary SCs; experiment: In-vitro ischemia of primary SCs from normo-perfused muscles; format: cell-based, C57BL/6J mice; settings: SB202190 1 μmol/L added
Procedure: (§1) SCs were isolated from gastrocnemius muscles of C57BL/6J wild type mice subjected to ischemia or C57BL/6J mice lacking the GHSR1a and ghrelin genes (10 mice, kind gift of Professor M. Tschöp)^39. To obtain SCs, muscle samples were subjected to enzymatic digestion as described^45. In selected experiments, SCs were recovered from normo-perfused muscles and subjected to in-vitro ischemia in presence of saline, AG (1 μmol/L) or UAG (1 μmol/L). In-vitro ischemia was induced by incubating cells in DMEM+2% FCS at 5% CO2/95% N2 humidified atmosphere, yielding 1% O2 concentrations for 24 h^18. The in-vitro ischemia was also performed in the presence of SB202190 (1 μmol/L).
(§2) SC cell-cycle progression was evaluated by evaluating the percentage of PCNA-positive cells or by FACS analysis as previously described^46. The percentage of cells in each cell cycle phase was determined by ModFit LT software (Verity Software House. Inc, topsham, ME, USA). Celss proliferation was also assayed by evaluating the percentage of PCNA-positive cells by FACS analysis.
(§3) Cells were lysed and protein detection was obtained as previously described^47. Cells were lysed (50 mmol/L Tris HCl [pH 8.3], 1% Triton X-100, 10 mmol/L PMSF, 100 U/ml aprotinin, 10 μmol/L leupeptin) and protein concentrations were obtained as previously described^47. […] Densitometric analysis was used to calculate the differences in the fold induction of protein levels and normalized to tubulin, a actin or p38MAPK content. Values are reported as relative amount
(§4) Intracellular ROS production was evaluated using DCF-DA (5-(and-6)-carboxy-2′,7′-dichlorofluorescein diacetate, […] final concentration) (Molecular Probe, Invitrogen) assay as previously described^23. The formation of TBARS was determined in muscles using the OXI-TEK kit (ZeptoMetrix Corp.) and a luminescence spectrometer (Bio-Rad Laboratories, Hercules, Calif.) with excitation set at 530 nm, emission at 550 nm to measure in-vivo oxidative stress levels^33.
Total RNA was isolated using TRIzol reagent (Invitrogen) from SCs recovered from muscles of treated animals or from SCs subjected to in-vitro ischemia. miR-221/222 expression was evaluated by qRT-PCR as previously described^48. Loss-of-function experiments were performed in SCs transfected for 48 h with anti-miRNA negative control, anti-miR-221/222 antagonists (Applied Biosystem, Foxter Cyto CA, USA), according to the manufacturer's instructions^48.

[2] = test system: unilateral hind limb ischemia in C57BL/6J mice (ischemic gastrocnemius muscle); experiment: Murine hind-limb ischemia model; format: in vivo
Procedure: Male C57BL/6J mice (Charles River Lab., Wilmington, Mass., USA) were anesthetized and unilateral hind limb ischemia was induced as described^42. The normo-perfused contralateral limb of each mouse was used as an internal control. After hind-limb ischemia, animals (18 mice per group) were treated by intra-peritoneal injection daily from 0 to day 21 with either saline, AG (100 μg/kg) or UAG (100 μg/kg). In selected experiments, mice received intramuscular injections of pre-miR oligonucleotides (5 mice/group). To induce toxic damage, 100 μl of 1% barium chloride (BaCl2, Sigma Aldrich) was injected unilaterally into the hind limb (9 mice). Mice were treated according to European Guidelines and policies as approved by the University of Turin Ethical Committee.
Semiquantitative estimation (by repeated measures analyzed with ANOVA and Newman-Keuls Multiple Comparison test) of foot damage was performed serially using the following classification: 3=dragging of foot (foot necrosis), 2=no dragging but no plantar flexion (foot damage), 1=plantar flexion but no toe flexion (toe damage), and 0=flexing the toes to resist gentle traction on the tail (no damage)^43.
Gastrocnemius muscle sections from ischemic or normo-perfused limbs were stained with hematoxylin and eosin for histological analysis. The proportion of fibers with central nuclei (regenerating fibers) was measured by MetaMorph software (Life Sciences Research Imaging Systems) in the injured area and the cross-sectional areas of the fibers in the injured and non-injured areas. For IF analysis, muscle sections were processed as described previously^44. The number of cells expressing the indicated markers or CD31 positive vessels was evaluated as previously described^34.
as §4

[3] = test system: SCs from double KO mice; experiment: In-vitro ischemia of SCs from double KO mice lacking the GHSR1a and ghrelin genes; format: cell-based, C57BL/6J mice lacking the GHSR1a and ghrelin genes
Procedure: as §1, §2, §3, §4

[4] = test system: glucose, insulin and lipid metabolisms; settings: cited from earlier work; for retention of the activity of UAG full length: U.S. Pat. Nos. 8,222,217 and 8,318,664; for smallest fragment retaining UAG activity: earlier patents
[5] = test system: C2C12 mouse muscular cell line; experiment: ROS production (DCF-DA) in C2C12 cells under oxidative stress; format: cell-based; settings: 1 μmol/L; stress by hypoxia (1% O2), AGEs, hyperglycemia (25 mM) or H2O2; FIG. 8
Procedure: Kinetic analysis of ROS production was evaluated by using DCF-DA (5-(and-6)-carboxy-2′,7′-dichlorofluorescein diacetate, 0.5 μmol/L final concentration) (Molecular Probe, Invitrogen) assay. C2C12 cells were cultured with 400 μg/ml Advanced Glycated End-product (AGE) or 25 mM glucose (high glucose HG) for 48 h, H2O2 (100 μM) for 2 h. In parallel experiments C2C12 cells were subjected to hypoxia (DMEM+2% FCS in a 5% CO2-95% N2 humidified atmosphere, yielding to 1% O2 concentrations for 24 h). UAG (1 μmol/L) AZP 531 (1 μmol/L) or AZP-502 (1 μmol/L) was added where indicated.

Oc1ccc(-c2nc(-c3ccncc3)c(-c3ccc(F)cc3)[nH]2)cc1 [SB202190, reference compound]
cell-cycle entry of SCs exposed to UAG ([1]; FIG. 5E): blocked cell-cycle entry | MyoD and myogenin expression in SCs exposed to UAG ([1]; FIG. 5F): prevented MyoD and myogenin expression

AG: 28 amino acid peptide with an n-octanoyl modification on the Ser3 residue; endogenous ligand of GHSR-1a (GSS(Octanoyl)FLSPEHQRVQQRKESKKPPAKLQPR; UniProt Q9UBU3 24-51, looked up) [reference compound]
protection against ischemia-induced damage (overall in vivo effect) ([2]; 100 μg/kg i.p. daily): failure to detect in vivo effects | foot damage (functional score) ([2]; 100 μg/kg i.p. daily from day 0, FIG. 1A): significantly higher | capillary density, ischemic vs contralateral control muscles of the same animals ([2]; 100 μg/kg i.p. daily, FIG. 1B): significantly lower capillary density than in contralateral control muscles | concentration of TBARS in ischemic muscles ([2]; FIG. 3A): Significant increases in the concentration of TBARS | SC cell-cycle progression ([3]; FIG. 5G): only UAG | p-p38/MAPK, Pax-7, MyoD, Myf5 and myogenin expression ([3]; FIGS. 5H, 5I): only UAG

EHQRVQ [UAG (8-13)]
retention of the activity of UAG full length [4]: retain the activity of UAG full length on glucose, insulin and lipid metabolisms

Glu-His-Gln-Arg (EHQR; listed as Homo sapiens) [UAG (8-11)]
retention of the activity of UAG full length [4]: retain the activity of UAG full length on glucose, insulin and lipid metabolisms | smallest fragment retaining UAG activity [4]: smallest UAG fragment to retain UAG activities

Glu-His-Gln-Arg-Val (EHQRV; listed as Homo sapiens) [UAG (8-12)]
retention of the activity of UAG full length [4]: retain the activity of UAG full length on glucose, insulin and lipid metabolisms

His-Gln-Arg (HQR; listed as Homo sapiens) [UAG (9-11)]
retention of the activity of UAG full length [4]: retain the activity of UAG full length on glucose, insulin and lipid metabolisms

His-Gln-Arg-Val (HQRV; listed as Homo sapiens) [UAG (9-12)]
retention of the activity of UAG full length [4]: retain the activity of UAG full length on glucose, insulin and lipid metabolisms | smallest fragment retaining UAG activity [4]: smallest UAG fragment to retain the biological activity of UAG

SPEHQRVQ [UAG (6-13)]
protection against oxidative stress (ROS production) [5]: have a protective effect on C2C12 cells against oxidative stress | retention of the activity of UAG full length [4]: retain the activity of UAG full length on glucose, insulin and lipid metabolisms

Ser-Pro-Glu-His-Gln-Arg-Val-Gln (cycl) (SPEHQRVQ; also: cyclic, closure not given here; listed as Homo sapiens) [UAG(6-13)cyclic]
protection against oxidative stress (ROS production) [5]: have a protective effect on C2C12 cells against oxidative stress
